Here are results for six compounds from ChEMBL document CHEMBL1201862, “PubChem BioAssay data set” (2004).

Common to all, as to assay: NCI tumour cell line growth inhibition, 48 h
In test [1] the test system is RPMI-8226.
The test system of test [2] is HOP-62.
For test [3], the system named is SK-MEL-5.
Test [4] deals with M14.
The test system of test [5] is ACHN.
Test [6] relates to SF-268.
In test [7] the test system is MDA-MB-435.
In test [8] the test system is OVCAR-3.
Test [9] concerns SW-620.
The subject of test [10] is UACC-257.
The subject of test [11] is CAKI-1.
Test [12] deals with SNB-75.
Test [13] relates to RXF 393.
The subject of test [14] is NCI-H460.
For test [15], the system named is KM12.
Test [16] has as its system A549.
Test [17] relates to SK-OV-3.
The subject of test [18] is NCI-H226.
Test [19] has as its system NCI-H522.
Test [20] deals with SF-295.

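Assay format: 96-well plates, 48-hour exposure. GI50: concentration for 50% inhibition of growth.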 Calls of active or inactive are those of the source. No stated cut-off is given here; in the data, active = GI50 up to about 1.1 µM and inactive = higher. Bounds are passed on as bounds.

With `O=C(Cc1ccc(Cl)c(Cl)c1)NCCCN1CCN(CCCN2CCCCC2)CC1`, the GI50 in test [1] was 2.71 µM (inactive); in test [2], 17 µM (inactive); in [3] it was 10.4 µM (inactive); in [4] it was 19.3 µM (inactive); in test [5], 27.2 µM (inactive); in test [6], 19.5 µM (inactive). Further, the GI50 was 1.9 µM (inactive) in test [7]; 25.5 µM (inactive) in test [8]; 19.9 µM (inactive) in test [9]; 5.26 µM (inactive) in [10]; 20.4 µM (inactive) in test [11]; 19.5 µM (inactive) in [12]. Besides, the GI50 in test [13] is 13.2 µM (inactive); in test [14], 16.6 µM (inactive); in test [15], 15.8 µM (inactive); in [16] it was 20.6 µM (inactive); in test [17], 19.2 µM (inactive); in [18] it was 21.7 µM (inactive). Also, the GI50 in test [19] was 15.7 µM (inactive); in test [20], 19 µM (inactive).

As for `OCC(S)CS.[Bi]` (stereo not given), the GI50 is 2.93 µM (inactive) in [1]; 19.1 µM (inactive) in test [2]; 31.4 µM (inactive) in test [3]; 8.36 µM (inactive) in test [4]; 16.5 µM (inactive) in [5]; 5.43 µM (inactive) in test [6]. Also, the GI50 is 15.2 µM (inactive) in test [7]; 10.8 µM (inactive) in test [8]; 16 µM (inactive) in [9]; 13 µM (inactive) in test [10]; 11.8 µM (inactive) in test [11]; 11.1 µM (inactive) in test [12]. For the same compound, the GI50 in [13] is 10.7 µM (inactive); in test [14] it was 13.4 µM (inactive); in test [15], 19.1 µM (inactive); in [16], 28 µM (inactive); in test [17] it was 31.6 µM (inactive); in test [18], 51.8 µM (inactive). The GI50 was 1.58 µM (inactive) in test [19] and 48.2 µM (inactive) in test [20].

With `Cc1ccc(-c2c(-c3ccccc3)[nH]c(C)c2C(=O)ONC(=O)c2ccccc2)cc1`, the GI50 is 3.46 µM (inactive) in [1]; 1.99 µM (inactive) in [2]; 6.41 µM (inactive) in [3]; 5.19 µM (inactive) in test [4]; 1.91 µM (inactive) in [5]; 2.36 µM (inactive) in test [6]. For the same compound, the GI50 in test [7] was 2.19 µM (inactive); in test [8], 4.49 µM (inactive); in test [9] it was 8.51 µM (inactive); in [10], 13.7 µM (inactive); in test [11], 2.19 µM (inactive); in test [12], 1.92 µM (inactive). Also, the GI50 is 1.87 µM (inactive) in test [13]; 2.17 µM (inactive) in test [14]; 9.68 µM (inactive) in test [15]; 2.52 µM (inactive) in test [16]; 14.4 µM (inactive) in [17]; 7.24 µM (inactive) in test [18]. The GI50 in test [19] was 2.31 µM (inactive); in [20], 1.93 µM (inactive).

For `CC(C)=CCNc1nc(Cl)nc2[nH]cnc12`, the GI50 in test [1] was > 100 µM (inactive); in test [2], 27.9 µM (inactive); in test [3], 29.3 µM (inactive); in test [4], > 100 µM (inactive); in test [5] it was 54.1 µM (inactive); in [6] it was 55 µM (inactive). The GI50 is > 100 µM (inactive) in test [7]; > 100 µM (inactive) in test [8]; > 100 µM (inactive) in test [9]; 27.1 µM (inactive) in test [10]; > 100 µM (inactive) in [11]; > 100 µM (inactive) in [12]. The GI50 in test [13] is 25.2 µM (inactive); in test [14] it was 16.7 µM (inactive); in test [15] it was > 100 µM (inactive); in test [16], 28.8 µM (inactive); in test [17], 16.4 µM (inactive); in [18], > 100 µM (inactive). In addition, the GI50 in test [19] was > 100 µM (inactive); in test [20], 42.6 µM (inactive).

In the case of `COc1ccccc1CC1(O)OC(=O)c2ccccc21` (stereo not given), the GI50 in [1], in test [2], in test [3], in test [4], in [5] and in test [6] was > 100 µM (inactive) in each case. In addition, the GI50 in test [7], in test [8], in test [9], in [10], in test [11] and in [12] was > 100 µM (inactive) in each case. In addition, the GI50 in test [13], in test [14], in test [15], in test [16], in test [17] and in test [18] was > 100 µM (inactive) throughout. Besides, the GI50 in test [19] and in [20] was > 100 µM (inactive) each time.

Turning to `C[C@H]1O[C@@H](O[C@H]2[C@@H](O)C[C@H](O[C@H]3[C@@H](O)C[C@H](O[C@H]4CC[C@@]5(C)[C@H](CC[C@@H]6[C@@H]5CC[C@]5(C)[C@@H](C7=CC(=O)OC7)[C@@H](O)C[C@]65O)C4)O[C@@H]3C)O[C@@H]2C)C[C@H](O)[C@@H]1O` [GITOXIN], the GI50 was 0.197 µM (active) in test [1]; 0.566 µM (active) in [2]; 0.118 µM (active) in test [3]; 0.475 µM (active) in test [4]; 0.0948 µM (active) in test [5]; 0.152 µM (active) in test [6]. For the same compound, the GI50 was 0.365 µM (active) in test [7]; 0.13 µM (active) in test [8]; 0.258 µM (active) in test [9]; 0.522 µM (active) in test [10]; 0.107 µM (active) in [11]; 0.703 µM (active) in test [12]. In addition, the GI50 in test [13] was 0.0991 µM (active); in test [14], 0.132 µM (active); in [15], 0.658 µM (active); in test [16], 0.0719 µM (active); in [17], 0.39 µM (active); in test [18] it was 0.855 µM (active). The GI50 in test [19] is 0.0238 µM (active); in [20], 0.169 µM (active).
